The source of these data is patent US6569872B1, “Use of neurokinin receptor antagonists to treat androgen-dependent diseases” (Schering Corporation, priority 2001, dated 2003).

Each structure is given as a SMILES string.

The subject of one data set is serum testosterone. The data set is described as follows: Reduction of LHRH-stimulated serum testosterone in mice. The format is in vivo, male nude mice. How it is done:
The effects of Compounds A, B, C, D, E and F on serum testosterone were tested in mice given intramuscular (i.m.) luteinizing hormone releasing hormone (LHRH) to drive testicular androgen biosynthesis.
Male nude mice (8 weeks old, 5 mice/group) were dosed orally with 0, 5, 15, 45, 90, 150 or 300 mg/kg of Compound A in 20% hydroxypropyl β-cyclodextran (HPβCD). After 1 hour, animals were given an i.m. injection of LHRH (250 ng/kg in 50 μl Sterile Water) into the biceps femoris muscle to drive testosterone production. After an additional hour, the animals were anesthetized with ketamine/xylazine, bled by cardiac puncture, and serum testosterone levels were determined by radioimmunoassay.
The effects of 90 mg/kg of Compounds A, B, C, D, E and F on LHRH-stimulated serum testosterone levels were compared in male nude mice.

Data set [1] has as its system serum LH, T, DHEA, and androstenedione. Description: Lower-dose 7-day study in male beagle dogs. The format is in vivo. How it is done:
Another study was conducted to evaluate the effects of lower doses (0.1, 0.5, 2.5, 12.5 mg/kg) of Compound A administered to male beagle dogs for 7 days.

Data set [2] deals with serum concentrations of testosterone (T) and luteinizing hormone (LH). The data set is described as follows: Serum LH and testosterone in male dogs dosed for 1, 3 or 7 days. The data set is classed as in vivo, beagle dogs. How it is done:
To further characterize reproductive system effects, adult male healthy beagle dogs were administered sterile water (placebo) or Compound A orally by gavage for 1, 3 or 7 days (Day 0=first day of dosing). Serum was collected from blood for determination of serum concentrations of testosterone (T) and luteinizing hormone (LH).
There were typically one to three spikes of LH and T within the sampling period. In many dogs the LH spikes preceded the T spikes by 20 to 40 minutes.
In dogs receiving Compound A, serum LH and T concentrations were generally near the lower baseline values at the first time point evaluated (1 hour after the first doses), and then typically declined throughout the 4-hour evaluation. This trend toward decreased LH and T concentrations from 60 to 300 minutes postdose was statistically significant (p<0.0001). LH and T remained at low concentrations for the remainder of the study. […] The decline in LH to very low (mean values of 1.5 to 3.8 ng/ml for Compound A versus 10.2 to 14.8 ng/ml for Controls) concentration was more rapid than that seen with T. In dogs receiving Compound A, serum LH and T concentrations at Day 2 were generally lower than those at Day 0. Serum LH concentrations on Day 6 were similar to those on Day 2, while serum T concentrations on Day 6 were generally lower than those on Day 2. By Days 2 and 6, some LH and many T samples were below the limit of detection despite using sensitive assays.

Data set [3] deals with Shionogi mouse mammary carcinoma tumors. Description: Androgen-dependent tumor growth, Shionogi carcinoma in nude mice. The data set is classed as in vivo. The following applies: end of 15 days, relative to vehicle control. How it is done: (§1) Following the observation of reduction of serum testosterone in mice, the effects of Compound A on androgen-dependent tumor growth were tested. […] Shionogi mouse mammary carcinoma tumors were grown in nude mice as an androgen-dependent model, and DU-145 human prostate carcinoma tumors were grown in nude mice as an androgen-independent model.
In the Shionogi experiment, male nu/nu mice (8-9 weeks old, 10 mice/group) were inoculated with Shionogi carcinoma cells and tumors were grown to approximately 150 mm^3 before initiation of Compound A administration. Mice were treated twice daily, i.p. with 20% HPβCD vehicle control, 5 mg/kg Compound A or 15 mg/kg Compound A. Tumor growth was inhibited over 15 days of Compound A treatment relative to vehicle control animals. At the end of 15 days, mean tumor volumes were inhibited by 41% and 69% in the 5 mg/kg and 15 mg/kg groups, respectively.

The test system of data set [4] is serum LH, T, androstenedione, and DHEA. Description: Reversibility of the effects on hormones, 7 days dosing and 14-day postdose period. The data set is classed as in vivo, dogs. The method, then:
The following investigative study was conducted to determine whether the changes observed after 1 week of Compound A administration were reversible after a 14-day postdose period. The first day of dosing was Day 1.
There were eight dogs in Group 1, who received placebo (sterile water) and twelve dogs in Group 2, who received Compound A. Dogs were scheduled to be dosed for 7 days; however, one dog died shortly after receiving the sixth dose of compound A. All eight dogs in Group 1 had hormonal evaluations on Day 7; 4 of these dogs were necropsied on Day 8. The remaining four dogs in Group 1 had hormonal evaluations on Day 21 (14 days postdose), and were necropsied on Day 22. In Group 2, eleven dogs had hormonal evaluations on Day 7, and five were necropsied on Day 8. The remaining six dogs in Group 2 had hormonal evaluations on Day 21 (14 days postdose) and were necropsied on Day 22.
There were typically one to three spikes of LH and T within the sampling period. In many dogs the LH spikes preceded the T spikes by 30 to 60 minutes. Androstenedione and DHEA concentrations tended to rise and fall with those of T, although in some dogs there were many values below the limit of quantitation.
In dogs receiving Compound A at Day 7, serum LH, T, androstenedione, and DHEA concentrations were often very low. Group mean values for LH, T, androstenedione, and DHEA were 14.7, 1.5, 0.37, and 0.88 ng/ml for dogs receiving sterile water, while dogs receiving Compound A had group mean values of 2.4, 0.05, 0.01 and 0.03 ng/ml, respectively. […] It should also be noted that on Day 7 almost all T, androstenedione, and DHEA samples were below the limit of detection despite using sensitive assays.

The subject of data set [5] is DU-145 human prostate carcinoma tumors. Description: Androgen-independent tumor growth, DU-145 in nude mice. The data set is classed as in vivo. To be noted: 15, 45 or 90 mg/kg twice daily i.p., over 30 days. How it is done: as §1
In the DU-145 experiment, male nu/nu mice (9-10 weeks old, 10 mice/group) were inoculated with DU-145 prostate carcinoma cells and tumors were grown to approximately 65 mm^3 before initiation of Compound A administration. Mice were treated twice daily, i.p. with 20% HPβCD vehicle control, 15 mg/kg, 45 mg/kg or 90 mg/kg of Compound A. As expected, tumor growth was not inhibited over 30 days in any of the Compound A groups.

The format of data set [6] is in vivo. The method, then:
Compound A was administered as an aqueous solution in sterile water by daily oral gavage to adult healthy beagle dogs.
The dogs received 28 consecutive daily doses at dose levels of 0, 15, 30 or 60 mg/kg. […] Organ weights of male and female reproductive tract tissues were 33-86% lower than that of concurrent controls, and occurred in all dose groups. […] In the epididymides, vacuolation (mild) of epithelium was also present in the mid- and high-dose males. […] This was characterized in the ovaries by a lack of antral follicles, and most follicles that were present were small and contained only small numbers of granulosa cells. Compared to control dogs, the uterine bodies and horns had less myometrial tissue present. Uterine epithelium from dogs receiving Compound A with immature uteri had very little cytoplasm present. The changes in the female reproductive system may be related to atrophy rather than immaturity.

The mark [7] stands for this setting: 7 days, 0.1, 0.5, 2.5, 12.5 mg/kg.
[8] abbreviates: 7 days, doses of 2.5 and 12.5 mg/kg.
[9] abbreviates: males, all dose groups, 28 days oral.

Take `CN(C/C(=N\O)C(CCN1CCC(N2CCCC(CC(N)=O)C2=O)CC1)c1ccc(Cl)c(Cl)c1)C(=O)c1cc(Cl)cc(Cl)c1` (stereo not shown) [B]: the “reduction of LHRH-stimulated serum testosterone (statistical significance)” value (from here on “reduction … (statistical significance)”) in the data set with serum testosterone (90 mg/kg, male nude mice) is “statistically significant (p<0.01) reduction”.
The same measure, in the same setting: with `CO/N=C(\CN(C)C(=O)c1cc(Cl)cc(Cl)c1)C(CCN1CCC(N2CCCC(CC(N)=O)C2=O)CC1)c1ccc(Cl)c(Cl)c1` (stereo not shown) [C] the entry was “statistically significant (p<0.01) reduction”.
Turning to `CNC(=O)CC1CCCN(C2CCN(CCC(/C(CN(C)C(=O)c3cc(Cl)cc(Cl)c3)=N/OC)c3ccc(Cl)c(Cl)c3)CC2)C1=O` (stereo not shown) [Compound A], in data set [1] (setting [7]), the “histopathologic changes in testes and epididymides” value was “degeneration and cellular debris in the seminiferous tubules, interstitial cell vacuolation in the testes, epithelial vacuolation, atrophy, apoptosis, hypospermia, and interstitial edema of the epididymides”; the “histopathologic changes of the prostate gland” value was “Epithelial apoptosis and atrophy”. Besides, in data set [1] (setting [8]), the “decrease in serum DHEA (dehydroepiandrosterone)” value was “clearly observed”, the “decrease in serum LH” value was “clearly observed”, the “decrease in serum T” value is recorded as “clearly observed” and the “decrease in serum androstenedione” value is reported as “clearly observed”. Moreover, the “group mean serum T concentration compared to concurrent controls” value in data set [2] (Day 0, 2 and 6, p≦0.0001) is recorded as “significant lower”. In addition, the “group mean serum LH concentration compared to concurrent controls” value in data set [2] (Day 0, 2 and 6, p≦0.0005) is given as “significant lower”. The “pulsatile patterns of serum LH and T” value in data set [2] (male beagle dogs, oral gavage) is on record as “lacked the normal pulsatile patterns”. Also, in data set [3] (5 mg/kg twice daily i.p.), the “inhibition of mean tumor volume” value stood at 41%. For the same compound, the “inhibition of mean tumor volume” value in data set [3] (15 mg/kg twice daily i.p.) was found to be 69%. In the data set with serum testosterone (15 mg/kg oral in 20% HPβCD, LHRH i.m. after 1 hour, bled after an additional hour), the “inhibition of serum testosterone” value was 62%. Moreover, the “reduction … (statistical significance)” value in the data set with serum testosterone (90 mg/kg, male nude mice) was “statistically significant (p<0.01) reduction”. The “maximum inhibition of serum testosterone” value in the data set with serum testosterone (300 mg/kg oral in 20% HPβCD, LHRH i.m. after 1 hour, bled after an additional hour) amounted to 83%. The “group mean serum androstenedione” value in data set [4] (Day 7, sterile water group 0.37 ng/ml) amounted to 0.01 ng/mL. In addition, the “group mean serum DHEA” value in data set [4] (Day 7, sterile water group 0.88 ng/ml) was 0.03 ng/mL. In data set [4] (Day 7, sterile water group 1.5 ng/ml), the “group mean serum T” value worked out at 0.05 ng/mL. The “group mean serum LH” value in data set [4] (Day 7, sterile water group 14.7 ng/ml) was 2.4 ng/mL. Moreover, in data set [4] (Day 21 (14 days postdose)), the “serum DHEA group mean and peak mean concentrations versus concurrent controls” value is reported as “not significantly different”; the “serum LH group mean and peak mean concentrations versus concurrent controls” value is on record as “not significantly different”; the “serum T group mean and peak mean concentrations versus concurrent controls” value is listed as “not significantly different”; the “serum androstenedione group mean and peak mean concentrations versus concurrent controls” value is on record as “not significantly different”. Moreover, the mortality entry in data set [4] (twelve dogs in the group, shortly after the sixth dose) is “one dog died”. In data set [5], the tumor growth inhibition result is on record as “not inhibited”. Moreover, the “organ weights of male and female reproductive tract tissues, lower than concurrent controls” value in data set [6] (beagle dogs, oral gavage, 28 daily doses, all dose groups (15, 30, 60 mg/kg)) is reported as 33-86%. Also, the “appearance of ovaries and uteri” value in data set [6] (females, at least one dog in each dose group, 28 days oral) is given as “appeared immature”. The “aspermia/hypospermia in the epididymides” value in data set [6] (males, 28 days oral) is recorded as “observed in all dose groups”. In data set [6] (setting [9]), the “atrophy of epididymides (microscopic grade)” value is “minimal to moderate”, the “atrophy of prostate gland (microscopic grade)” value is on record as “mild to moderate” and the “atrophy of seminiferous tubules in the testes (microscopic grade)” value was “severe”. In data set [6] (mid- and high-dose males, 28 days oral), the “vacuolation of epithelium in the epididymides (grade)” value is given as “mild”.
Consider `CNC(=O)CC1CCCN(C2CCN(CCC(/C(CNC(=O)c3cc(Cl)cc(Cl)c3)=N/OC)c3ccc(Cl)c(Cl)c3)CC2)C1=O` (stereo not shown) [Compound D], for which the “reduction … (statistical significance)” value with serum testosterone (90 mg/kg, male nude mice) was “failed to reach statistical significance”. The “reduction of mean serum testosterone” value with serum testosterone (90 mg/kg, male nude mice, LHRH-stimulated) was determined as 19%.
On to `CO/N=C(\CNC(=O)c1cc(Cl)cc(Cl)c1)C(CCN1CCC(N2CCC[C@H](CC(N)=O)C2=O)CC1)c1ccc(Cl)c(Cl)c1` (stereo partly shown) [E], for which the “reduction … (statistical significance)” value with serum testosterone (90 mg/kg, male nude mice) was “statistically significant (p<0.01) reduction”.
Still for that read-out and setting: with `CNC(=O)C[C@H]1CCCN(C2CCN(CC[C@@H](/C(CN(C)C(=O)c3cc(Cl)cc(Cl)c3)=N/O)c3ccc(Cl)c(Cl)c3)CC2)C1=O` [F] the entry was “statistically significant (p<0.01) reduction”.
